Test results: patent US5532223A, “Use of aqueous soluble glucan preparations to stimulate platelet production” (priority 1995, dated 1996)
Like-named read-outs stand apart in the source and are kept apart here.

Experiments:
Human Monocytes = assay: TNF-α synthesis by human monocyte monolayers stimulated with glucan preparations (ELISA); type: cell-based; conditions: for TNF-α / TNF-α Mean ± SD: glucan 1 mg/ml; for TNF-α Mean ± SD: Table 3; for TNF-α stimulation (in words): human monocytes, Tables 3 and 4
Text: Human peripheral blood mononuclear cells were isolated (Janusz et al., (1987), J. Immunol., 138: 3897-3901) from normal citrated and dextran-treated blood, washed in Hank's balanced salts solution (HBSS), lacking calcium, magnesium, and phenol red, and purified by gradient centrifugation on cushions of Ficoll-Paque (Pharmacia Fine Chemicals, Piscataway, N.J.). The mononuclear cells were collected into HBSS, washed twice, resuspended in RPMI 1640 Medium (Gibco, Grand Island, N.Y.) containing 1% heat-inactivated autologous serum (56° C. for 30 min.), and counted on the Coulter counter.
For the preparation of monocyte monolayers, 1 ml of 2.2×10^6 mononuclear cells/ml was plated into wells of 24-well tissue culture plates (CoStar, Cambridge, Mass.), incubated for 1 h at 37° C. in a humidified atmosphere of 5% CO2, and washed three times with RPMI to remove nonadherent cells. A second 1 ml aliquot of 2.2×10^6 mononuclear cells/ml was layered into each well and incubated for 2 hours as described above before removal of the nonadherent cells. By visual enumeration at 40× with an inverted phase microscope and a calibrated reticule, the number of adherent cells for 30 different donors was 0.77±0.20×10^6 per well (mean±SD). By morphology and nonspecific esterase staining, >95% of the adherent cells were monocytes.
Monocyte monolayers were incubated at 37° C. in the CO2 chamber for 0 to 8 h with 0.5 ml of RPMI, 1% heat-inactivated autologous serum, 10 mM HEPES, and 5 mM MgCl2 in the absence and presence of various glucan preparations. The culture supernatant was removed, clarified by centrifugation at 14,000 g for 5 min at 4° C., and stored at -70° C. before assay of cytokines.
The data are expressed as pg per 10^6 monocytes, which was calculated by dividing the quantity of cytokine in 0.5 ml of supernatant by the number of monocytes per well.

full thickness wounds = assay: Wound healing, full thickness wound in hairless mice; type: in vivo, mouse
Protocol: Wound healing studies were performed on hairless mouse models having full thickness wounds with and without Staphylococcus aureus infection.
Incisions were closed using steel clips at 1 cm intervals.
[…] Two micrograms of neutral soluble glucan/mouse per day was topically applied. Wounds were examined daily and rank-ordered for effectiveness of formulation for enhancement of visual based wound healing each day. Wounds were scored for closure on a scale of 0-5, with 5 indicating the most healing. In one group of mice that served as the infection model, the wound was treated with a culture of 10^7 Staphylococcus aureus 30 minutes after wounding and 2 hrs prior to treatment with the neutral soluble glucan formulation.
Histological evaluation of the wound site of each test group was made. The dermis of the control group (untreated wound) was heavily infiltrated with both lymphocytes and monocytes/macrophages. However, re-epithelialization that occurred at the epidermal layer was incomplete.

[1] = tested on: IL-1, TNF, IL-6, IL-8 and GM-CSF; assay: Clinical trial in healthy males: serum cytokines; type: in vivo, human
Protocol: (§1) A randomized, double-blind, placebo-controlled clinical trial was conducted on healthy males to evaluate the safety of neutral soluble glucan (2.25 mg/kg) injected by intravenous infusion compared to a placebo control. […] The results are consistent with the in vitro data reported in the earlier examples.

[2] = tested on: Human Peripheral Blood Mononuclear Cells (TNFα); assay: In vitro TNFα synthesis by human peripheral blood mononuclear cells (radioimmunoassay), stimulation and priming; type: cell-based; conditions: for TNFα: 24 hours, mean of two donors
Protocol: (§2) Venous blood was obtained from healthy male volunteers and mononuclear cells were fractionated by Ficoll-Hypaque centrifugation. The mononuclear cells were washed, resuspended in endotoxin-free RPMI-1640 culture medium ultrafiltered to remove endotoxins as described elsewhere (Dinarello et al., 1987, J. Clin. Microbiol. 25:1233-8) at a concentration of 5×10^6 cells/ml and were aliquoted into 96-well microtiter plates (Endres et al., 1989, N. E. J. Med. 320:265-271). The cells were then incubated with either 1 ng/ml endotoxin (lipopoly-saccharide, E. coli 055:B5, Sigma, St. Louis), or 10 to 1000 ng/ml PGG, at 37° C. for 24 hours in 5% CO2 and then lysed by three freeze-thaw cycles (Endres et al., 1989, N. E. J. Med. 320:265-271). Synthesis of IL-1β and TNFα were determined by specific radioimmunoassays as described elsewhere (Lisi et al., 1987, Lymph Res. 6:229-244; Lonnemann et al., 1988, Lymph. Res. 7:75-84; Van der Meer et al., 1988, J. Leukocycte Biol. 43:216-223.
(§3) To determine if neutral soluble glucan could act as a priming agent for cytokine synthesis with endotoxin, a known cytokine stimulant, mononuclear cells were pre-incubated with 1, 10, and 1000 ng/ml underivatized, aqueous soluble β-glucan for 3 hours at 37° C. in 5% CO2. The cells were washed to remove neutral soluble glucan and were then incubated with 1 ng/ml endotoxin as described above. IL-1β and TNFα were determined as described above.

[3] = human, in vivo, iv
Protocol: as §1

[4] = tested on: Human Peripheral Blood Mononuclear Cells (IL-1β); assay: In vitro IL-1β synthesis by human peripheral blood mononuclear cells (radioimmunoassay), stimulation and priming; type: cell-based; conditions: for IL-1β: 24 hours, mean of two donors
Protocol: as §2, §3

[5] = tested on: β-glucan receptor on human monocytes; assay: Avidity for the glucan receptor: inhibition of monocyte ingestion of zymosan particles; type: cell-based; conditions: for % Inhibition of monocyte ingestion: mean of two experiments
Protocol: Monolayers of human monocytes, prepared on siliconized glass coverslips (Czop et al., 1978, J. […] The monocyte monolayers were then washed twice with 50 ml of RPMI 1640 medium and were layered with 0.25 ml of 4.8×10^6 /ml zymosan particles (Czop and Austen, 1985, J. Immunol., 134:2588-2593). After a 30 minute incubation at 37° C., the monolayers were washed three times with 50 ml of Hank's balanced salt solution to remove noningested zymosan particles. The monolayer were then fixed and stained with Giemsa. The ingestion of zymosan particles by at least 300 monocytes per monolayer was determined by visual observation under a 1000× light microscope.
The percent inhibition of monocyte ingestion was determined by subtracting the percentage of monocytes ingesting targets after pretreatment with the neutral soluble glucan from the percentage ingesting targets after pretreatment with buffer, dividing this number by the percentage ingesting targets after pretreatment with buffer and multiplying by 100.

[6] = tested on: monocytes and neutrophils (killing activity); assay: Ex vivo microbicidal activity of normal volunteers; type: in vivo, human; conditions: 2.5 mg/kg, normalized with respect to the saline control, N 6
[7] = tested on: polymicrobic infectious challenge (cecal inoculum); assay: Rat model for intra-abdominal sepsis; type: in vivo; conditions: rats
platelets = assay: Platelet count in irradiated mice; type: in vivo, mouse; conditions: single IV bolus 20 hours prior to 7.5-Gy total-body irradiation, fourteen days after irradiation, FIG. 7
Protocol: The platelet proliferation stimulatory effect of the neutral soluble glucan was tested in an animal model system following irradiation or administration of the chemotherapeutic agent cisplatin.
More specifically, neutral soluble glucan prepared as described in Example 1 was administered to groups of 10 mice in a single IV bolus 20 hours prior to radiation exposure. Mice were bilaterally exposed to a total-body irradiation of 7.5-Gy. Fourteen days after irradiation the mice were sacrificed and whole blood samples were analyzed for peripheral blood counts.

Staphylococcus aureus = assay: Wound healing, full thickness wound infected with Staphylococcus aureus in hairless mice; type: in vivo, mouse; conditions: wound treated with 10^7 Staphylococcus aureus; topical
Protocol: Wound healing studies were performed on hairless mouse models having full thickness wounds with and without Staphylococcus aureus infection. […] Incisions were closed using steel clips at 1 cm intervals. Formulations of neutral soluble glucan in phosphate buffered saline were applied 30 minutes following wounding and reapplied at 24 hour intervals during the seven day post-operative period. Two micrograms of neutral soluble glucan/mouse per day was topically applied. Wounds were examined daily and rank-ordered for effectiveness of formulation for enhancement of visual based wound healing each day. Wounds were scored for closure on a scale of 0-5, with 5 indicating the most healing. In one group of mice that served as the infection model, the wound was treated with a culture of 10^7 Staphylococcus aureus 30 minutes after wounding and 2 hrs prior to treatment with the neutral soluble glucan formulation.

monocytes = assay: Clinical trial in healthy males: monocyte counts; type: in vivo, human; conditions: 2.5 mg/kg, N 6
[8] = water
neutrophils = assay: Clinical trial in healthy males: absolute neutrophil counts; type: in vivo, human; conditions: 2.5 mg/kg, N 6
[9] = mice treated topically for three days, in phosphate buffered saline
[10] = pre-incubation 10-1000 ng/ml, then endotoxin as co-stimulant

Laminarin [reference compound]
TNF-α (Human Monocytes; Table 3, column 1): 372 pg/10^6 monocytes
TNF-α (Human Monocytes; Table 3, column 2): 324 pg/10^6 monocytes
TNF-α (Human Monocytes; Table 3, column 3): 227 pg/10^6 monocytes
TNF-α Mean ± SD (Human Monocytes): 308 ± 74 pg/10^6 monocytes
TNF-α (Human Monocytes; Table 4): 1312 pg/10^6 monocytes
TNF-α stimulation (in words) (Human Monocytes): stimulated

poly-(1-6)-β-D-glucopyranosyl-(1-3)-β-D-glucopyranose [Neutral soluble glucan]
histology of wounded tissue: cell infiltration (full thickness wounds; [9]): heavy infiltration of macrophages and lymphocytes
histology of wounded tissue: tissue integrity (full thickness wounds; [9]): Tissue integrity was good
wound healing (in words) (full thickness wounds; topically applied, two micrograms/mouse per day): accelerated wound healing within the dermal layer of the wound
elevation in IL-1, TNF, IL-6, IL-8 and GM-CSF ([1]; 2.25 mg/kg intravenous infusion): no observed elevation
changes in serum IL-1 and TNF ([1]; over time, FIGS. 5 and 6): no changes occurred
priming of TNFα synthesis compared to endotoxin alone (in words) [2, 10]: did not result in any amplification
TNFα ([2]; stimulant 10 ng/ml): 0.16 ng/mL
TNFα ([2]; stimulant 100 ng/ml): 0.16 ng/mL
TNFα ([2]; stimulant 1000 ng/ml): 0.14 ng/mL
TNFα synthesis over control buffer treated cells (in words) ([2]; used alone as stimulant): did not induce increased levels
fever or inflammatory reactions [3]: none of the patients experienced fever or inflammatory reactions
adverse effects ([3]; 2.25 mg/kg): No adverse effects were observed
priming of IL-1β synthesis compared to endotoxin alone (in words) [4, 10]: did not result in any amplification
IL-1β ([4]; stimulant 10 ng/ml): 0.13 ng/mL
IL-1β ([4]; stimulant 100 ng/ml): 0.12 ng/mL
IL-1β ([4]; stimulant 1000 ng/ml): < 0.10 ng/mL
IL-1β synthesis over control buffer treated cells (in words) ([4]; used alone as stimulant): did not induce increased levels
receptor binding capacity (in words) ([5]; 50 μg/ml and 500 μg/ml): higher receptor binding capacity than Peak B
% Inhibition of monocyte ingestion ([5]; 50 μg/ml): 74%
% Inhibition of monocyte ingestion ([5]; 500 μg/ml): 86%
Mean Change in % Killing ([6]; Day 2): 48.96%
Mean Change in % Killing ([6]; Day 3): 39.22%
Mean Change in % Killing ([6]; Day 6): 31.17%
Mean Change in % Killing ([6]; Hour 3): 42.86%
Mean Change in % Killing ([6]; Hour 6): 32.33%
Mean Change in % Killing ([6]; Hour 24): 20.90%
protection from lethal bacterial challenge (in words) [7]: protects rats from lethal bacterial challenge
Mortality (dead/total) ([7]; 100 μg/0.2 ml intramuscularly 24 hours and 4 hours prior to challenge, P vs. Saline <0.01): 2/10
platelet cell count relative to saline treated control levels (platelets): ~3 fold
TNF-α (Human Monocytes; Table 3, column 1): 44 pg/10^6 monocytes
TNF-α (Human Monocytes; Table 3, column 2): 51 pg/10^6 monocytes
TNF-α (Human Monocytes; Table 3, column 3): 33 pg/10^6 monocytes
TNF-α Mean ± SD (Human Monocytes): 43 ± 9 pg/10^6 monocytes
TNF-α (Human Monocytes; Table 4): 16 pg/10^6 monocytes
TNF-α stimulation (in words) (Human Monocytes): no stimulation of TNF-α
infection of the wound (in words) (Staphylococcus aureus): effectively eliminated infection
progression to sepsis (in words) (Staphylococcus aureus): prevented the progression to sepsis
Monocyte Counts, Mean (monocytes; B = Baseline measurement): 0.24 × 1000/μl
Monocyte Counts, Mean (monocytes; Hour 8): 0.63 × 1000/μl
Monocyte Counts, Mean (monocytes; Hour 12): 0.67 × 1000/μl
Monocyte Counts, Mean (monocytes; Hour 24): 0.31 × 1000/μl
aqueous solubility [8]: approximately 100 mg/ml
aqueous solubility ([8]; pH 13): ~150 mg/mL
Absolute Neutrophil Counts, Mean (neutrophils; B = Baseline measurement): 4.11 × 1000/μl
Absolute Neutrophil Counts, Mean (neutrophils; Hour 8): 11.29 × 1000/μl
Absolute Neutrophil Counts, Mean (neutrophils; Hour 12): 8.18 × 1000/μl
Absolute Neutrophil Counts, Mean (neutrophils; Hour 24): 5.32 × 1000/μl
